# Experimental data as given in patent US20060089395A1, “Nf-kb activation inhibitors” (priority 2002, published 2006).
# Read-outs that look alike come from different tables or passages of the source.
# How the values were obtained:
# NF-κ B = assay: Inhibitory activity of NF-κ B activation, luciferase reporter assay in HepG2 under TNF-α stimulation; type: cell-based, human; conditions: Homo sapiens
# Outline: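 Readout is firefly luciferase luminescence, expressed as inhibition versus compound-free wells. Before this, HepG2 cells carrying a transiently transfected 5×NF-κB-site luciferase plasmid (6–24 h post-transfection) received test compound plus TNF-α (40 ng/ml) for 4 h.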
# IL-6 = assay: Inhibition of IL-6 production by TNFα stimulation in synovial fibroblasts derived from a rheumatoid patient (ELISA); type: cell-based, human; conditions: Homo sapiens, Fibroblast, 72 h; synovial fibroblasts, 10 ng/ml TNFα, 3 days; read-out: Inhibition against Mediator Release IC50(nM) IL-6
# Description: (§1) Synovial fibroblasts (Human Synoviocyte (RA-Positive), Toyobo, T4040-05) were cultured for 3 days in a medium containing 10 ng/ml of TNFα and a test compound. IL-6 and IL-8 in the supernatant were measured by the ELISA method, and PGE2 (prostaglandin E2) was measured by the EIA method.
# IL-8 = assay: Inhibition of IL-8 production by TNFα stimulation in synovial fibroblasts derived from a rheumatoid patient (ELISA); type: cell-based, human; conditions: Homo sapiens, Fibroblast, 72 h; synovial fibroblasts, 10 ng/ml TNFα, 3 days; read-out: Inhibition against Mediator Release IC50(nM) IL-8
# Description: as §1
# PGE2 = assay: Inhibition of PGE2 production by TNFα stimulation in synovial fibroblasts derived from a rheumatoid patient (EIA); type: cell-based, human; conditions: Homo sapiens, Fibroblast, 72 h; synovial fibroblasts, 10 ng/ml TNFα, 3 days; read-out: Inhibition against Mediator Release IC50(nM) PGE2
# Description: as §1
# [1] = tested on: type II collagen induced arthritis; assay: Inhibitory test against type II collagen induced arthritis in mice; type: in vivo, Balb/c mice; conditions: 10 mg/kg intraperitoneally once in two days; day 44; score of the control = 100%
# Description: Balb/c mice were immunized with heterologous type II collagen and Freund's complete adjuvant by subcutaneous or intraperitoneal injection. At 21 days after the treatment, these mice were immunized again with heterologous type II collagen and Freund's incomplete adjuvant by subcutaneous or intraperitoneal injection to develop arthritis.
# A test substance suspended in an appropriate diluent or the diluent alone (negative control) was administered intraperitoneally once in two days from the day of the first immunization, and as for arthritis developed after the second immunization, clinical symptoms of each ankle joint of all foots were recorded day after day as numerous scores. When the score of the control measured on day 44 after administration of 10 mg/kg of the medicament of the present invention was expresses as 100%, rates of exacerbation (%) of the clinical symptoms of arthritis were 37.5 (Compound No. 4), 76.5 (Compound No. 90), 56.2 (Compound No. 11), 64.0 (Compound No. 88), and 0.0 (Compound No. 83).
# [2] = tested on: myocardial ischemia reperfusion disorder; assay: Inhibitory test against myocardial ischemia reperfusion disorder in rats; type: in vivo, rat; conditions: 5 mg/kg intraperitoneally; 24 hours after reperfusion
# Description: Left coronary artery of 7 to 9 week-old rat was ligated to induce ischemic state. After 25 minutes, a test substance suspended in an appropriate diluent or the diluent alone (negative control) was intraperitoneally administered, and after 30 minutes, the animal was reperfused. After 24 hours, a rate of necrosis of an ischemic part of the cardiac muscle was measured.
# [3] = tested on: Vascular smooth muscle cells of normal coronary artery (Cryo CASMC); assay: Inhibitory test against proliferation of vascular smooth muscle cells of normal coronary artery under proliferation stimulation (MTS assay); type: cell-based; conditions: FGF and EGF stimulation, 72 hours
# Description: Vascular smooth muscle cells of normal coronary artery (Cryo CASMC) were cultured for 2 hours in the presence or absence of a test substance in DMEM medium containing 0.5% of FBS and insulin (5 u g/ml). Then, FGF and EGF were added for proliferation stimulation. The mixture was cultured for 72 hours and proliferation of the cells were measured by the MTS assay. The results aree shown in the following
# Thy-1 nephritis = assay: Rat Thy-1 nephritis model; type: in vivo; conditions: intraperitoneal administration of less than 15 mg/kg
# [4] = tested on: intestinal ischemic reperfusion-caused hepatopathy; assay: Rat intestinal ischemic reperfusion-caused hepatopathy model; type: in vivo; conditions: intraperitoneal administration of 10 mg/kg
# myocarditis = assay: Rat myocarditis model immunized with pig heart-derived cardiac myosin; type: in vivo; conditions: intraperitoneal administration at 10 mg/kg
# [5] = tested on: artery abrasion restenosis; assay: Mouse artery abrasion restenosis model; type: in vivo; conditions: intraperitoneal administration at 10 mg/kg
# [6] = 1 μg/mL, HepG2, TNF-α (40 ng/ml), 4 hours, read-out: Inhibitory Ratio of NF-κ B Activation(%) Drug Concentration 1 μg/mL
# [7] = 10 μg/mL, HepG2, TNF-α (40 ng/ml), 4 hours, read-out: Inhibitory Ratio of NF-κ B Activation(%) Drug Concentration 10 μg/mL
Structure (SMILES),"inhibition at 0.1 µg/mL (NF-κ B; HepG2, 4 h, 0.1 μg/ml, comparison table, reporter assay, read-out: Inhibitory Ratio of NF-κB Activation (%) 0.1 μg/ml)","inhibition at 1 µg/mL (NF-κ B; HepG2, 4 h, 1 μg/ml, comparison table, reporter assay, read-out: Inhibitory Ratio of NF-κB Activation (%) 1 μg/ml)","inhibition at 10 µg/mL (NF-κ B; HepG2, 4 h, 10 μg/ml, comparison table, reporter assay, read-out: Inhibitory Ratio of NF-κB Activation (%) 10 μg/ml)",inhibition at 1 µg/mL (NF-κ B; [6]),inhibition at 10 µg/mL (NF-κ B; [7]),IC50 (IL-6),IC50 (IL-8),IC50 (PGE2),rates of exacerbation (%) of the clinical symptoms of arthritis [1],inhibition of the necrosis of the cardiac muscle in comparison with the control [2],Inhibitory Ratio of Proliferation(%) Compound Concentration 250 nM [3],Inhibitory Ratio of Proliferation(%) Compound Concentration 500 nM [3],renal protective action (Thy-1 nephritis),TNFα concentration in blood [4],endotoxic levels in blood [4],inhibition of hepatopathy [4],inhibition of the onset of myocarditis (myocarditis),inhibition of proliferation of vascular endothelial cells and vascular smooth muscle cells [5],melting point
"O=C(Nc1cc(C(F)(F)F)cc(C(F)(F)F)c1)c1cc(Cl)ccc1O [Compound No.4, N-[3,5-bis(trifluoromethylphenyl)]-5-chloro-2-hydroxybenzamide]",60.9%,95.7%,97.5%,95.7%,97.5%,294 nM,450 nM,388 nM,37.5%,60%,87.9%,92.2%,exhibited a renal protective action,lowered,lowered endotoxic levels,significantly inhibited hepatopathy,significantly also inhibited the onset of myocarditis,significantly inhibited proliferation of vascular endothelial cells and vascular smooth muscle cells,–
"O=C(Nc1cc(C(F)(F)F)cc(C(F)(F)F)c1)c1cc(C(=O)N2CCC(Cc3ccccc3)CC2)ccc1O [Compound No. 40, N-[3,5-Bis(trifluoromethyl)phenyl]-2-hydroxy-5-(4-benzylpiperidine-1-carbonyl)benzamide]",–,–,–,44.9%,96%,–,–,–,–,–,–,–,–,–,–,–,–,–,179 to 180 °C
"CC(=O)Oc1ccccc1C(=O)Nc1cc(Cl)cc(Cl)c1 [Compound No. 120, 2-acetoxy-N-(3,5-dichlorophenyl)benzamide]",–,–,–,88.6%,97.5%,–,–,–,–,–,–,–,–,–,–,–,–,–,218 to 219 °C
"CC(C)(C)c1ccc(O)c(C(=O)Nc2cc(C(F)(F)F)cc(C(F)(F)F)c2)c1 [compound 11, N-[3,5-Bis(trifluoromethyl)phenyl]-5-[(1,1-dimethyl)ethyl]-2-hydroxybenzamide]",–,–,–,92.9%,98.3%,247 nM,377 nM,389 nM,56.2%,–,86.7%,91.4%,–,–,–,–,–,–,–
